Measured values published in ChEMBL document CHEMBL3232945 (Eur J Med Chem, 2014).

Key:
Rattus norvegicus [1] = assay: Toxicity in […] normotensive Wistar rat assessed as mean arterial pressure at 40 mg/kg, ip after 60 mins (reference value: 95.07 +/- 1.973 mmHg); type: organism-based, Artery; set-up: dose 40 mg/kg, route intraperitoneal; conditions: in vivo, 1 h
Rattus norvegicus [2] = assay: Antihypertensive activity in Wistar rat assessed as mean arterial pressure at 40 mg/kg, ip measured immediately at 0 min (reference value: 194.08 +/- 1.962 mmHg); type: functional, Artery; conditions: route intraperitoneal
Rattus norvegicus [3] = assay: Antihypertensive activity in Wistar rat assessed as mean arterial pressure at 40 mg/kg, ip after 15 mins (reference value: 195.68 +/- 1.623 mmHg); type: functional, Artery; conditions: route intraperitoneal
Rattus norvegicus [4] = assay: Antihypertensive activity in Wistar rat assessed as mean arterial pressure at 40 mg/kg, ip after 30 mins (reference value: 194.72 +/- 1.002 mmHg); type: functional, Artery; conditions: route intraperitoneal
Rattus norvegicus [5] = assay: Antihypertensive activity in Wistar rat assessed as mean arterial pressure at 40 mg/kg, ip after 45 mins (reference value: 193.96 +/- 0.865 mmHg); type: functional, Artery; conditions: route intraperitoneal
Rattus norvegicus [6] = assay: Antihypertensive activity in Wistar rat assessed as mean arterial pressure at 40 mg/kg, ip after 60 mins (reference value: 195.11 +/- 0.531 mmHg); type: functional, Artery; conditions: route intraperitoneal
Rattus norvegicus [7] = assay: Toxicity in anesthetized-normotensive Wistar rat assessed as heart rate at 40 mg/kg, ip measured immediately at 0 min (reference value: 316.62 +/- 9.643 bpm); type: organism-based; set-up: dose 40 mg/kg, route intraperitoneal; conditions: in vivo, 0 h
Rattus norvegicus [8] = assay: Toxicity in anesthetized-normotensive Wistar rat assessed as heart rate at 40 mg/kg, ip after 15 mins (reference value: 313.93 +/- 9.912 bpm); type: organism-based; set-up: dose 40 mg/kg, route intraperitoneal; conditions: in vivo, 0.25 h
Rattus norvegicus [9] = assay: Toxicity in anesthetized-normotensive Wistar rat assessed as heart rate at 40 mg/kg, ip after 30 mins (reference value: 317.68 +/- 7.631 bpm); type: organism-based; set-up: dose 40 mg/kg, route intraperitoneal; conditions: in vivo, 0.5 h
Rattus norvegicus [10] = assay: Toxicity in anesthetized-normotensive Wistar rat assessed as heart rate at 40 mg/kg, ip after 45 mins (reference value: 316.82 +/- 8.452 bpm); type: organism-based; set-up: dose 40 mg/kg, route intraperitoneal; conditions: in vivo, 0.75 h
Rattus norvegicus [11] = assay: Toxicity in anesthetized-normotensive Wistar rat assessed as heart rate at 40 mg/kg, ip after 60 mins (reference value: 314.96 +/- 9.442 bpm); type: organism-based; set-up: dose 40 mg/kg, route intraperitoneal; conditions: in vivo, 1 h
Rattus norvegicus [12] = assay: Antiarrhythmic activity in barium chloride-induced Wistar rat assessed as increase in appearance time of arrhythmia at 40 mg/kg, ip administered 60 mins before barium chloride challenge (reference value: 129.4 +/- 4.373 sec); type: functional, Heart; conditions: route intraperitoneal
Rattus norvegicus [13] = assay: Antiarrhythmic activity in barium chloride-induced Wistar rat assessed as increase in mortality time at 40 mg/kg, ip administered 60 mins before barium chloride challenge (reference value: 682.8 +/- 9.656 secs); type: functional, Heart; conditions: route intraperitoneal
Rattus norvegicus [14] = assay: Toxicity in anaesthetized-Wistar rat assessed as P-Q ECG interval at 40 mg/kg, ip measured immediately at 0 min (reference value: 52.4 +/- 0.927 ms); type: organism-based; set-up: dose 40 mg/kg, route intraperitoneal; conditions: in vivo, 0 h
Rattus norvegicus [15] = assay: Toxicity in anaesthetized-Wistar rat assessed as QRS ECG interval at 40 mg/kg, ip measured immediately at 0 min (reference value: 19.6 +/- 1.142 ms); type: organism-based; set-up: dose 40 mg/kg, route intraperitoneal; conditions: in vivo, 0 h
Rattus norvegicus [16] = assay: Toxicity in anaesthetized-Wistar rat assessed as Q-T ECG interval at 40 mg/kg, ip measured immediately at 0 min (reference value: 78.8 +/- 1.030 ms); type: organism-based; set-up: dose 40 mg/kg, route intraperitoneal; conditions: in vivo, 0 h
Rattus norvegicus [17] = assay: Toxicity in anaesthetized-Wistar rat assessed as P-Q ECG interval at 40 mg/kg, ip after 15 mins (reference value: 52.2 +/- 1.158 ms); type: organism-based; set-up: dose 40 mg/kg, route intraperitoneal; conditions: in vivo, 0.25 h
Rattus norvegicus [18] = assay: Toxicity in anaesthetized-Wistar rat assessed as QRS ECG interval at 40 mg/kg, ip after 15 mins (reference value: 18.9 +/- 1.563 ms); type: organism-based; set-up: dose 40 mg/kg, route intraperitoneal; conditions: in vivo, 0.25 h
Rattus norvegicus [19] = assay: Toxicity in anaesthetized-Wistar rat assessed as Q-T ECG interval at 40 mg/kg, ip after 15 mins (reference value: 79.4 +/- 1.270 ms); type: organism-based; set-up: dose 40 mg/kg, route intraperitoneal; conditions: in vivo, 0.25 h
Rattus norvegicus [20] = assay: Toxicity in anaesthetized-Wistar rat assessed as P-Q ECG interval at 40 mg/kg, ip after 30 mins (reference value: […] +/- 0.927 ms); type: organism-based; set-up: dose 40 mg/kg, route intraperitoneal; conditions: in vivo, 0.5 h
Rattus norvegicus [21] = assay: Toxicity in anaesthetized-Wistar rat assessed as QRS ECG interval at 40 mg/kg, ip after 30 mins (reference value: 19.9 +/- 1.393 ms); type: organism-based; set-up: dose 40 mg/kg, route intraperitoneal; conditions: in vivo, 0.5 h
Rattus norvegicus [22] = assay: Toxicity in anaesthetized-Wistar rat assessed as Q-T ECG interval at 40 mg/kg, ip after 30 mins (reference value: 78.3 +/- 0.860 ms); type: organism-based; set-up: dose 40 mg/kg, route intraperitoneal; conditions: in vivo, 0.5 h
Rattus norvegicus [23] = assay: Toxicity in anaesthetized-Wistar rat assessed as P-Q ECG interval at 40 mg/kg, ip after 45 mins (reference value: 52.5 +/- 0.780 ms); type: organism-based; set-up: dose 40 mg/kg, route intraperitoneal; conditions: in vivo, 0.75 h
Rattus norvegicus [24] = assay: Toxicity in anaesthetized-Wistar rat assessed as QRS ECG interval at 40 mg/kg, ip after 45 mins (reference value: 20.2 +/- 1.348 ms); type: organism-based; set-up: dose 40 mg/kg, route intraperitoneal; conditions: in vivo, 0.75 h
Rattus norvegicus [25] = assay: Toxicity in anaesthetized-Wistar rat assessed as Q-T ECG interval at 40 mg/kg, ip after 45 mins (reference value: 78.8 +/- 0.927 ms); type: organism-based; set-up: dose 40 mg/kg, route intraperitoneal; conditions: in vivo, 0.75 h
Rattus norvegicus [26] = assay: Toxicity in anaesthetized-Wistar rat assessed as P-Q ECG interval at 40 mg/kg, ip after 60 mins (reference value: […] +/- 0.924 ms); type: organism-based; set-up: dose 40 mg/kg, route intraperitoneal; conditions: in vivo, 1 h
Rattus norvegicus [27] = assay: Toxicity in anaesthetized-Wistar rat assessed as QRS ECG interval at 40 mg/kg, ip after 60 mins (reference value: 19.3 +/- 0.873 ms); type: organism-based; set-up: dose 40 mg/kg, route intraperitoneal; conditions: in vivo, 1 h
Rattus norvegicus [28] = assay: Toxicity in anaesthetized-Wistar rat assessed as Q-T ECG interval at 40 mg/kg, ip after 60 mins (reference value: 79.7 +/- 0.965 ms); type: organism-based; set-up: dose 40 mg/kg, route intraperitoneal; conditions: in vivo, 1 h
Rattus norvegicus [29] = assay: Toxicity in […] normotensive Wistar rat assessed as mean arterial pressure at 40 mg/kg, ip measured immediately at 0 min (reference value: 94.21 +/- 2.065 mmHg); type: organism-based, Artery; set-up: dose 40 mg/kg, route intraperitoneal; conditions: in vivo, 0 h
Rattus norvegicus [30] = assay: Toxicity in […] normotensive Wistar rat assessed as mean arterial pressure at 40 mg/kg, ip after 15 mins (reference value: 93.81 +/- 1.543 mmHg); type: organism-based, Artery; set-up: dose 40 mg/kg, route intraperitoneal; conditions: in vivo, 0.25 h
Rattus norvegicus [31] = assay: Toxicity in […] normotensive Wistar rat assessed as mean arterial pressure at 40 mg/kg, ip after 30 mins (reference value: 94.68 +/- 1.213 mmHg); type: organism-based, Artery; set-up: dose 40 mg/kg, route intraperitoneal; conditions: in vivo, 0.5 h
Rattus norvegicus [32] = assay: Toxicity in […] normotensive Wistar rat assessed as mean arterial pressure at 40 mg/kg, ip after 45 mins (reference value: 94.83 +/- 0.943 mmHg); type: organism-based, Artery; set-up: dose 40 mg/kg, route intraperitoneal; conditions: in vivo, 0.75 h

Row | Compound | Activity (Rattus norvegicus [1]) | Activity (Rattus norvegicus [2]) | Activity (Rattus norvegicus [3]) | Activity (Rattus norvegicus [4]) | Activity (Rattus norvegicus [5]) | Activity (Rattus norvegicus [6]) | Activity (Rattus norvegicus [7]) | Activity (Rattus norvegicus [8]) | Activity (Rattus norvegicus [9]) | Activity (Rattus norvegicus [10]) | Activity (Rattus norvegicus [11]) | Time (Rattus norvegicus [12]) | Time (Rattus norvegicus [13]) | Activity (Rattus norvegicus [14]) | Activity (Rattus norvegicus [15]) | Activity (Rattus norvegicus [16]) | Activity (Rattus norvegicus [17]) | Activity (Rattus norvegicus [18]) | Activity (Rattus norvegicus [19]) | Activity (Rattus norvegicus [20]) | other results
1 | O=C1/C(=C\c2ccccc2)S/C(=N\c2ccccc2)N1CC(O)CN1CCN(C2CCCCC2)CC1 (centres undefined) | 75.43 mmHg | 195.99 mmHg | 185.69 mmHg | 151.12 mmHg | 138.63 mmHg | 158.39 mmHg | 324.13 bpm | 312.65 bpm | 289.54 bpm | 294.42 bpm | 303.42 bpm | 297.5 s | 944.9 s | 51.2 ms | 20 min | 72.8 min | 51.7 min | 21.4 min | 72.9 min | 52.3 min | Activity (Rattus norvegicus [21]): 21.9 ms; Activity (Rattus norvegicus [22]): 73.3 min; Activity (Rattus norvegicus [23]): 50.6 min; Activity (Rattus norvegicus [24]): 22.8 min; Activity (Rattus norvegicus [25]): 72.9 ms; Activity (Rattus norvegicus [26]): 51.3 min; Activity (Rattus norvegicus [27]): 22.6 min; Activity (Rattus norvegicus [28]): 71.2 ms; Activity (Rattus norvegicus [29]): 93.99 mmHg; Activity (Rattus norvegicus [30]): 85.61 mmHg; Activity (Rattus norvegicus [31]): 77.84 mmHg; Activity (Rattus norvegicus [32]): 64.01 mmHg
2 | O=C1/C(=C\c2ccccc2)S/C(=N\c2ccccc2)N1CC(O)CN1CCC(C(O)(c2ccccc2)c2ccccc2)CC1 (centres undefined) | 71.94 mmHg | 193.69 mmHg | 176.43 mmHg | 139.21 mmHg | 135.96 mmHg | 162.87 mmHg | 332.05 bpm | 310.46 bpm | 279.31 bpm | 295.73 bpm | 302.12 bpm | 323.4 s | 1162.1 s | 49.8 ms | 22.4 min | 72.9 min | 50.1 min | 23.1 min | 73.4 min | 51.3 min | Activity (Rattus norvegicus [21]): 23.8 ms; Activity (Rattus norvegicus [22]): 74.3 min; Activity (Rattus norvegicus [23]): 52.4 min; Activity (Rattus norvegicus [24]): 24.2 min; Activity (Rattus norvegicus [25]): 4.49e+06 ms; Activity (Rattus norvegicus [26]): 50.2 min; Activity (Rattus norvegicus [27]): 22.5 min; Activity (Rattus norvegicus [28]): 72.7 ms; Activity (Rattus norvegicus [29]): 91.39 mmHg; Activity (Rattus norvegicus [30]): 76.73 mmHg; Activity (Rattus norvegicus [31]): 70.26 mmHg; Activity (Rattus norvegicus [32]): 64.53 mmHg
